Results as given in patent US5468472A, “Topical process for lightening the skin or treating pigmental blemishes using a composition containing 4-thioresorcin derivatives” (L'Oreal, priority 1993, dated 1995).

tested on: fungal tyrosinase; assay: in vitro inhibition test of the activity of tyrosinase (dopachrome formation, 475 nm); type: biochemical; conditions: inhibitor at 50 mol % with respect to tyrosine; lowering of maximum dopachrome (OD 475 nm at plateau) vs no inhibitor; pH 6.5, 25° C.
Text: According to this test, the amount of dopachrome formed during the chain of reactions of conversion of tyrosine to melanins is monitored by visible spectrometry at 475 nm.
The concentration of dopachrome formed with time in the presence and in the absence of the inhibitor thus measured.
The inhibitor concentrations are set at 50 mol % with respect to the concentration of tyrosine in the reaction medium.
The inhibition effect is expressed by the lowering in the maximum amount of dopachrome formed (optical density value at 475 nm read at the plateau of the curve) with respect to the amount obtained in the absence of inhibitor.
A - 0.1M Phosphate buffer, pH=6.5 (1% Tween 20)
B - 2.10^-3 M Mother solution of L-tyrosine in A
C - 10^-4 M Mother solution of L-dopa in A
D - Mother solution of fungal tyrosinase in A containing 2,400 units/ml
E - 10^-2 M Mother solution of the inhibitor in A (Solutions C and D are to be prepared on the day)
reference cell: 3 ml of A
homogenize and equilibrate at 25° C.
mix rapidly and observe the kinetics by measuring the absorbence at 475 nm as a function of time.

Row | SMILES | % change in maximum dopachrome vs no inhibitor [%]
1 | CCSc1ccc(O)cc1O | -88
2 | CCCSc1ccc(O)cc1O | -76
3 | Oc1ccc(SCc2ccccc2)c(O)c1 | -95
4 | Oc1ccc(O)cc1 [hydroquinone, reference compound] | -33
5 | CCOC(=O)CSc1ccc(O)cc1O | -94
6 | CSc1ccc(O)cc1O | -90
7 | Oc1ccc(SCCSc2ccc(O)cc2O)c(O)c1 | -79
8 | Oc1ccc(SCCCN2CCOCC2)c(O)c1 | -65
9 | CC(C)Sc1ccc(O)cc1O | -84
